Source: patent EP0292291B1, “Linear and cyclic analogs of alpha-msh fragments with extraordinary potency” (UNIVERSITY PATENTS, INC., priority 1987, dated 1988)
Like-named read-outs stand apart in the source and are kept apart here. Positions of bridges follow the written chain, without caps; N, C: chain ends. Non-standard residues stand in square brackets, D forms with d. Residues, ends and D or L forms follow the SMILES beside them. Nle = CCCC[C@H](N)C(=O)O; Dab = NCC[C@H](N)C(=O)O

Columns and labels:
[1] = system: Frog (Rana pipiens) Skin; conditions: earlier studies, cited from earlier work; for Relative Potency Frog: relative to alpha-MSH = 1.0
[2] = system: Lizard (Anolis carolinensis) Skin; conditions: relative to alpha-MSH = 1.0; earlier studies; cited from earlier work
[3] = system: Lizard (Anolis carolinensis) Skin; format: cell-based
Source text: (§1) Based upon the structural relationship of alpha-MSH (and its analogues and fragments) to its biological potency, using in vitro a frog skin bioassay system, the active site of alpha-MSH appears to be the common active core sequence suitably modified Ac-Met-Glu-His-Phe-Arg-Trp-Gly-NH₂. This fragment (Alpha-MSH₄₋₁₀) has been synthesized and tested for its melanocyte stimulating activity in frog skin and shown to be a weak agonist when compared to the native hormone. The amino acid exchanges in position 5(Glu) and 10(Gly) have not, previous to the making of the present invention, been investigated. […] The following table summarizes some of these studies.
(§2) The biological potencies of alpha-MSH, the linear, and the cyclic analogues were determined by their ability to stimulate melanosome dispersion in vitro in the frog and lizard bioassays. These in vitro assays provide clear cut dose response curves (between 2.5 x 10⁻¹¹ and 4 x 10⁻¹⁰ M) and can detect minimal concentration of alpha-MSH of about 10⁻¹¹ M. The assays are based upon the centrifugal dispersion of melanosomes (melanin granules) within the dendritic processes of integumental dermal melanophores leading to darkening of the skin. All the test solutions were prepared via serial dilutions from a stock solution (10⁻⁴ M). The frogs (Rans pipiens) used in these evaluations were obtained from Kons Scientific, Germantown, WI, and the lizards (Anolis carolinensis) were from the Snake Farm, La Place, LA.

[4] = system: Frog (Rana pipiens) Skin; format: cell-based
Source text: as §1, §2

[5] = cyclic analogues, p = prolonged action
[6] = cyclic analogues, relative to alpha-MSH = 1.0
[7] = linear analogues, P = prolonged action
[8] = linear analogues, relative to alpha-MSH = 1.0

Row | Molecule | Relative Potency Frog [1] | Relative Potency Lizard [2] | Residual Activity Lizard [3, 7] | Biological Potency Lizard [3, 8] | Residual Activity Frog [4, 7] | Biological Potency Frog [4, 8] | further results
1 | Ac-Met-Glu-His-Phe-Arg-Trp-Gly-NH₂ [Ac-alpha -MSH₄₋₁₀NH₂] | 0.0003 | 0.004 |  |  |  |  | melanocyte stimulating activity in frog skin ([1]; result in words, compared to the native hormone): weak agonist
2 | Ac-[Nle⁴]-alpha-MSH₄₋₁₀NH₂ | 0.002 | 0.06 |  |  |  |  | 
3 | CCCC[C@H](NC(C)=O)C(=O)N[C@H]1CCC(=O)NCCCC[C@@H](C(=O)NCC(=O)N2CCC[C@H]2C(=O)N[C@H](C(N)=O)C(C)C)NC(=O)[C@H](Cc2c[nH]c3ccccc23)NC(=O)[C@H](CCCNC(=N)N)NC(=O)[C@@H](Cc2ccccc2)NC(=O)[C@H](Cc2c[nH]cn2)NC1=O [Analogue 15] (Ac-[Nle]EH[dF]RWKGPV-NH2; lactam 2-7) |  |  |  |  |  |  | Biological Potency Lizard [3]: 6.0; Residual Activity Lizard [3, 5]: p(+); Biological Potency Frog [4]: 1.0; Residual Activity Frog [4, 5]: p(+)
4 | CCCC[C@H](NC(C)=O)C(=O)N[C@H]1CC(=O)NC[C@@H](C(N)=O)NC(=O)[C@H](Cc2c[nH]c3ccccc23)NC(=O)[C@H](CCCNC(=N)N)NC(=O)[C@@H](Cc2ccccc2)NC(=O)[C@H](Cc2c[nH]cn2)NC1=O [Analogue 20] |  |  |  |  |  |  | Residual Activity Lizard [3, 5]: p(-); Biological Potency Lizard [3, 6]: 5.0; Residual Activity Frog [4, 5]: p(-); Biological Potency Frog [4, 6]: 0.01
5 | CCCC[C@H](NC(C)=O)C(=O)N[C@@H](CC(=O)O)C(=O)N[C@@H](Cc1c[nH]cn1)C(=O)N[C@H](Cc1ccccc1)C(=O)N[C@@H](CCCNC(=N)N)C(=O)N[C@@H](Cc1c[nH]c2ccccc12)C(=O)N[C@@H](CCCCN)C(=O)NCC(=O)N1CCC[C@H]1C(=O)N[C@H](C(N)=O)C(C)C [Analogue 4] (Ac-[Nle]DH[dF]RWKGPV-NH2) |  |  | P(+) | 10.0 | P(+) | 1.0 | 
6 | alpha-melanotropin [alpha-MSH] | 1.0 | 1.0 | P(-) | 1.0 |  |  | Residual Activity Lizard [3, 5]: p(-); Biological Potency Lizard [3, 6]: 1.0
7 | Ac-[Nle⁴]-alpha-MSH₄₋₁₁NH₂ | 0.002 | 1.0 |  |  |  |  | 
8 | Ac-[Nle⁴,D-Phe⁷]-alpha-MSH₄₋₁₀NH₂ | 0.02 | 10.0 |  |  |  |  | 
9 | CCCC[C@H](NC(C)=O)C(=O)N[C@@H](CCC(=O)O)C(=O)N[C@@H](Cc1c[nH]cn1)C(=O)N[C@H](Cc1ccccc1)C(=O)N[C@@H](CCCNC(=N)N)C(=O)N[C@@H](Cc1c[nH]c2ccccc12)C(=O)N[C@@H](CCN)C(N)=O [Analogue 10] (Ac-[Nle]EH[dF]RW[Dab]-NH2) |  |  | P(±) | 10.0 | P(±) | 0.9 | 
10 | Ac-[Nle⁴,D-Phe⁷]-alpha -MSH₁₋₁₃NH₂ | 60.0 | 5.0 |  |  |  |  | 
11 | CCCC[C@H](NC(C)=O)C(=O)N[C@@H](CC(=O)O)C(=O)N[C@@H](Cc1c[nH]cn1)C(=O)N[C@H](Cc1ccccc1)C(=O)N[C@@H](CCCNC(=N)N)C(=O)N[C@@H](Cc1c[nH]c2ccccc12)C(=O)N[C@@H](CCN)C(N)=O [Analogue 11] |  |  | P(-) | 50.0 | P(-) | 0.9 | 
12 | CCCC[C@H](NC(=O)[C@H](CO)NC(=O)[C@H](Cc1ccc(O)cc1)NC(=O)[C@H](CO)NC(C)=O)C(=O)N[C@@H](CC(=O)O)C(=O)N[C@@H](Cc1c[nH]cn1)C(=O)N[C@H](Cc1ccccc1)C(=O)N[C@@H](CCCNC(=N)N)C(=O)N[C@@H](Cc1c[nH]c2ccccc12)C(=O)N[C@@H](CCCCN)C(=O)NCC(=O)N1CCC[C@H]1C(=O)N[C@H](C(N)=O)C(C)C [Analogue 2] (Ac-SYS[Nle]DH[dF]RWKGPV-NH2) |  |  | P(-) | 8.0 | P(+) | 9.0 | 
13 | CCCC[C@H](NC(C)=O)C(=O)N[C@@H](CC(=O)O)C(=O)N[C@@H](Cc1c[nH]cn1)C(=O)N[C@H](Cc1ccccc1)C(=O)N[C@@H](CCCNC(=N)N)C(=O)N[C@@H](Cc1c[nH]c2ccccc12)C(=O)N[C@@H](CCCN)C(N)=O [Analogue 9] |  |  | P(-) | 10.0 |  | 0.9 | 
14 | CCCC[C@H](NC(C)=O)C(=O)N[C@H]1CCC(=O)NCCCC[C@@H](C(N)=O)NC(=O)[C@H](Cc2c[nH]c3ccccc23)NC(=O)[C@H](CCCNC(=N)N)NC(=O)[C@@H](Cc2ccccc2)NC(=O)[C@H](Cc2c[nH]cn2)NC1=O [Analogue 16] |  |  |  |  |  |  | Residual Activity Lizard [3, 5]: p(+); Biological Potency Lizard [3, 6]: 9.0; Residual Activity Frog [4, 5]: p(+); Biological Potency Frog [4, 6]: 0.5
15 | CCCC[C@H](NC(C)=O)C(=O)N[C@@H](CC(=O)O)C(=O)N[C@@H](Cc1c[nH]cn1)C(=O)N[C@H](Cc1ccccc1)C(=O)N[C@@H](CCCNC(=N)N)C(=O)N[C@@H](Cc1c[nH]c2ccccc12)C(=O)N[C@@H](CN)C(N)=O [Analogue 12] |  |  | P(-) | 8.0 | P(-) | 0.2 | 
16 | CCCC[C@H](NC(C)=O)C(=O)N[C@@H](CCC(=O)O)C(=O)N[C@@H](Cc1c[nH]cn1)C(=O)N[C@@H](Cc1ccccc1)C(=O)N[C@@H](CCCNC(=N)N)C(=O)N[C@@H](Cc1c[nH]c2ccccc12)C(=O)N[C@@H](CCCCN)C(N)=O [Analogue 13] |  |  | P(-) | 0.08 | P(+) | 0.001 | 
17 | Ac-[Nle⁴,D-Phe⁷]-alpha-MSH₄₋₁₁NH₂ | 0.16 | 8.0 |  |  |  |  | 
